Test results as given in publication PMC5762338, “A novel orally available Syk/Src/Jak2 inhibitor, SKLB-850, showed potent anti-tumor activities in B cell lymphoma (BCL) models” (Oncotarget, 2017).
pIC50: −log10 of the molar value.

Experiments:
Ramos cells = assay: Chemotaxis assay toward CXCL12 (transwell); type: cell-based, Human; details: CXCL12 200ng/mL, 12 hours
Procedure: And BCL cells could migrate toward the chemokine CXCL12 upon activation of its receptor CD184 [27].
Chemotaxis assay was performed as previously described. Briefly, 1×10^6 Ramos cells were cultured in RPMI 1640 containing 0.5% bovine serum albumin and were pre-incubated for 30 minutes with SKLB-850, R788 or DMSO, and then they were added to the inserts of transwell chambers (5μm poresize; Corning). Inserts were then transferred into wells containing CXCL12 (200ng/mL). After 12 hours, cell count was determined for the upper and lower well in duplicates using a flow cytometer (Novocyte Technologies, China). Chemotaxis indices were calculated as: [number of cells in the lower chamber×100] / [number of cells in the lower and upper chambers]. The chemotaxis index with SKLB-850 was calculated as percentage of the DMSO index.

[1] = test system: CCL3 secretion of Ramos cells; assay: ELISA of chemokine secretion after anti-IgM and anti-CD40 stimulation; type: cell-based, Human; details: anti-IgM and anti-CD40 induced, 0.1μM, 18 hours, n=3, stimulated without compound 3443.00 ± 134.80 pg/mL
Procedure: (§1) We then measured the concentrations of CCL3 and CCL4 in supernatant of Ramos cells cultured in medium, or medium supplemented with anti-IgM and anti-CD40 in the presence or absence of SKLB-850 after 18 hours. CCL3 and CCL4 are chemokines, which appear to correlate with the signaling capacity of the BCR [26]. As shown in Figure 3A and 3B, SKLB-850 inhibited the increased secretion of CCL3 and CCL4 stimulated by anti-IgM and anti-CD40. The mean CCL3 and CCL4 concentrations in supernatants of Ramos cells after anti-IgM and CD40 stimulation were 3443.00 ± 134.80 pg/mL and 134.80 ± 1.90 pg/mL, respectively.
(§2) To evaluate the effect of SKLB-850 on CCL3 and CCL4 secretion after stimulation of Ramos cells with anti-IgM (30 μg/ml) and anti-CD40 (10 μg/ml), chemokine levels were measured in supernatants of activated BCL cells, as previously described. After 18 hours of anti-IgM and anti-CD40 co-culture, supernatants were harvested and assayed for CCL3 and CCL4 by quantitative enzyme-linked immunosorbent assays according to the manufacturer’s instructions (Quantikine, R&D Systems, Minneapolis, MN, USA).

[2] = test system: CCL4 secretion of Ramos cells; assay: as above; type: cell-based, Human; details: anti-IgM and anti-CD40 induced, 0.1μM, 18 hours, n=3, stimulated without compound 134.80 ± 1.90 pg/mL
Procedure: as §1, §2

[3] = Preliminary toxicity evaluation in treated mice; type: in vivo
Procedure: A preliminary toxicity evaluation to SKLB-850 was also carried out. […] Besides, toxic pathologic changes in liver, lung, kidney, spleen, and heart were not detected by microscopic examination (Figure 5C).
To investigate potential side effects or toxicity on mice during the treatment, anorexia skin ulceration, weight loss, diarrhea, and toxic death were observed continuously for relevant indexes. The tissues of heart, liver, spleen, lung, and kidney were stained with hematoxylin and eosin (H&E). ALT, AST, BUN and CREA in serum were measured by the National Chengdu Center for Safety Evaluation of Traditional Chinese Medicine using commercially available kits.

SMMC7721 = assay: MTT anti-viability assay; type: cell-based; details: SMMC-7721, SMMC7721, Human hepatocellular carcinoma cell, 72 hours
Procedure: (§3) In vitro anti-viability activities of SKLB-850 against various tumor cell lines were measured using the MTT method.
(§4) Human cancer cell lines Ramos-ZHL, HBL-1, SuDHL-6, LY-10, LY-1, RAJI, MDA-MB-231, SW1990, SMMC7721, MCF-7, CFPAC-1, HPAC, A549 and H358 were obtained from American Type Culture Collection (ATCC). All tumor cell lines were maintained according to the ATCC procedures and passaged for less than 6 months after receipt for resuscitation. These cells were cultured in RPMI-1640 supplemented with 10% fetal bovine serum (FBS).
(§5) Cell proliferation was measured using the MTT assay as previously described. Various cells including were treated with indicated concentrations of SKLB-850 for 72 hours. R788 (Selleck.cn) was served as a positive control. Each assay was replicated 3 times.

H358 = assay: MTT anti-viability assay; type: cell-based; details: 72 hours
Procedure: as §3, §4, §5

CFPAC-1 = assay: MTT anti-viability assay; type: cell-based; details: CFPAC-1, Human pancreatic cancer cell, 72 hours
Procedure: as §3, §4, §5

Ramos-ZHL = assay: MTT anti-viability assay; type: cell-based; details: Human B cell lymphoma, 72 hours
Procedure: as §3, §4, §5

SW1990 = assay: MTT anti-viability assay; type: cell-based; details: SW1990, Human pancreatic cancer cell, 72 hours
Procedure: as §3, §4, §5

SuDHL-6 = assay: MTT anti-viability assay; type: cell-based; details: SU-DHL-6, SuDHL-6, Human follicular B cell lymphoma, 72 hours
Procedure: as §3, §4, §5

[4] = test system: Ki67 and CD20 in Ramos tumor tissues; assay: Immunohistochemistry of Ki67 and CD20 in tumor tissues from the Ramos model; type: in vivo, NOD/SCID mice; details: mouse tumor tissues
Description: The ability of inducing apoptosis of SKLB-850 in tumor tissues was examined by TUNEL. […] We then examined apoptotic tumor cells in B-cell lymphoma samples from BCL patients after SKLB-850 treatment by FCM. As shown in Figure 6C and 6F, SKLB-850 induced cell apoptosis (14.10 ± 4.04%), and R788 had the same effect but relatively weak (7.60 ± 0.52%). To better understand the mechanism of antitumor activities in vivo, Ki67 and CD20 in mouse tumor tissues were detected by immunohischemistry; Ki67 was a marker of proliferation in the diagnosis of tumors and CD20 was highly expressed in B cell lymphomas.
Paraffin sections from each group were stained with hematoxylineosin (H&E). For immunohistochemistry studies, tumor tissues in the Ramos model were performed and the following antibodies were used: phospho-Src (Cell Signaling Technology, 1:100), phospho-FAK (Cell Signaling Technology, 1:100), phospho-Stat3 (Cell Signaling Technology, 1:100), NF-κB p-65(Cell Signaling Technology, 1:100) and phospho-Syk (Cell Signaling Technology, 1:100). Additionally, Rat anti-mouse CD31 antibody (BD Biosciences, USA) and anti-Ki67 antibody (Gene Tech) were used to determine vessel density and cell proliferation following the manufacturer’s protocol, respectively. A DAKO polymer secondary antibody system (Dako Envision 1K4007) was used for secondary detection. […]

CN1CCN(c2ccc(Nc3ncc(F)c(Nc4ccc(Cl)cc4C(N)=O)n3)cc2)CC1 [SKLB-850, 5-chloro-2-((5-fluoro-2-((4-(4-methylpiperazin-1-yl)phenyl)amino)pyrimidin-4-yl)amino) benzamide]
Ramos cell chemotaxis toward CXCL12 (in words) (Ramos cells): reduced the percentage of Ramos cell chemotaxis toward CXCL12
CCL3 level in supernatant [1]: 2303.10 ± 109.40 pg/mL
CCL4 level in supernatant [2]: 15.20 ± 0.30 pg/mL
toxic pathologic changes in liver, lung, kidney, spleen, and heart (H&E, in words) ([3]; microscopic examination): not detected
mouse body weight (in words) ([3]; treated groups, monitored once every three days): no significant differences in weights
levels of ALT, AST, BUN, and CREA of serum (in words) ([3]; treated mice): no obvious changes
pIC50 (SMMC7721): 5.66
IC50 anti-viability (H358; H358, Human non-small cell lung cancer cells): did not exhibit activity
pIC50 (H358; NCI-H358, H358, Human non-small cell lung cancer cells): < 4.70
pIC50 (CFPAC-1): 5.14
pIC50 (Ramos-ZHL): 7.52
pIC50 (SW1990): 5.66
pIC50 (SuDHL-6): 6.05
CD20 expression (in words) [4]: significant reduction
Ki67 expression (in words) [4]: significant reduction
